Test results as given in article PMC6268546, “A PAMPA Assay as Fast Predictive Model of Passive Human Skin Permeability of New Synthesized Corticosteroid C-21 Esters” (Molecules, 2012).

Tests used:
[1] = approximate logKp (permeability coefficient through human skin) calculated from logPe by equation (1); details: logKp = 1.34 logPe + 0.28, from PAMPA logPe
Source text: Ottaviani and coworkers predicted skin permeation of numerous compounds applying a new membrane (70% silicone oil and 30% IPM) in the PAMPA test and presented permeate classifications on the basis of available literature permeability coefficients through human skin, logKp.
The proposed equation for correlation between logKp and logPe for 31 investigated compounds was: […]

[2] = design: method as in PMID 16789751; details: 70% silicone-30% IPM membrane, 7 h; cited from earlier work
[3] = PAMPA test (skin permeability model); details: 70% silicone oil-30% IPM membrane, 7 h incubation, 100 μM in 5% DMSO phosphate buffer pH 7, triplicate mean
Protocol: The study was performed in triplicate and the results are presented as mean values. After the PAMPA tests was performed, a HPLC method was used to measure the concentrations of the investigated corticosteroids: the initial concentration–CD(0) in the starting solution, the residual concentration–CD(t) in the donor compartment (7 h after incubation) and the transferred concentration–CA(t) in the acceptor compartment (7 h after incubation). The assay was performed using the previously described HPLC method with mobile phase modification for determination of standard corticosteroids. The mobile phase modification was introduced to achieve complete separation standard corticosteroids peak from DMSO peak, which was used as cosolvent. DMSO was used as cosolvent with the aim of increasing the corticosteroid C-21 esters’ solubility. DMSO is one of the earliest and most widely studied penetration enhancers for transdermal drug delivery systems.
On the basis of the initial (100 μM) and calculated residual and transferred concentrations according to peak area comparison at zero time t0, the retention factors–R and permeability coefficients–logPe of investigated corticosteroids were obtained.
Phosphate buffer (pH = 7) was prepared by dissolving NaH2PO4·H2O (1.167 g) and Na2HPO4·7H2O (3.093 g) in water (1000 mL) with the fixed total concentration of 20 mM. The 5% DMSO solution were prepared dissolving DMSO in phosphate buffer. The corticosteroid solutions were prepared dissolving the investigated corticosteroid standards as well as new synthesized corticosteroid C-21 esters in 5% DMSO solution. […] An aliquot of previously prepared mixture (3.5 mL, 7 mL silicone oil and 3 mL IPM) was transferred into a 10 mL volumetric flask, dissolved and fill up to mark with n-hexane.
Permeation experiments were carried out in hydrophobic PVDF 96-well filter plates (Millipore, Molsheim, France). […] Next, in each well of acceptor plate, 5% DMSO solution (400 μL) was transferred with an automatic pipette and covered by the donor plate, creating a PAMPA sandwich. In each well of the donor plate solutions of the tested corticosteroid in 5% DMSO solution (100 μM, 300 μL) was transferred by the use of an automatic pipette. Each substance was measured in triplicate at iso-pH conditions (the same pH value in donor and receptor compartment). The donor plate was covered to prevent evaporation and the whole system set up to interact with the vibratory mixer. After 7 h, PAMPA sandwich was removed from the mixer and vibration, and using the HPLC method the concentration of the investigated substances in the donor and receptor compartments were determined. The HPLC method used was as previously described but with some necessary modifications. A mobile phase of methanol–water (75:25 v/v) was used for analysis of corticosteroid C-21 esters, while the mobile phase methanol–water (50:50 v/v) was used for the analysis of unesterified corticosteroids to increase their retention time and prevent overlapping with the DMSO peak. Other HPLC parameters were as previously described. The concentrations of each tested corticosteroid in the appropriate time interval in the donor and acceptor compartments were calculated using the method of comparing the peak area of the initial concentration at zero time t0.
The values of permeability coefficients–logPe and retention factors–R of examined corticosteroids were calculated using equations (2) and (3). The retention factor, R can be defined as the mole fraction retained in the membrane and in the microplates (i.e., filters and plate materials): [drawing 1] (2) where CA(t)/CD(0) represents the amount of compound that reached the acceptor compartment after incubation time t (for VA = VD): […]

logKp (approximate, calculated) [1]: −7.75 | permeation parameter CA(t)/CD(0) [3]: 1.3 ± 0.8% | retention factor R (membrane retention) [3]: 4.2 ± 2.0%
SMILES: C[C@@H]1C[C@H]2[C@@H]3CCC4=CC(=O)C=C[C@]4(C)[C@@]3(F)[C@@H](O)C[C@]2(C)[C@@]1(O)C(=O)CO [DEX, dexamethasone, reference compound]
logPe previously reported [2]: −5.75
